Reference: US7872133B2, “Tricyclic heterocycle compound” (Ono Pharmaceutical Co., Ltd., priority 2003, dated 2011)
pKi: −log10 of the molar value.

How the values were obtained:
MBR = biological target: T1, MBR (Rattus norvegicus, UniProt P16257); experiment: Receptor Binding Experiment (competition with [3H]PK11195); conditions: rat brain membrane preparation, [3H]PK11195 as MBR selective ligand; Ki by Cheng and Prusoff formula
T1 construct: from tissue; host or cells: whole brain without cerebellum of male Wistar rats, crude membrane preparation
Method: The affinity of the compounds in the present invention to MBR was determined using rat brain membrane preparation. In addition, the measurement in the present invention was improved the accuracy of measurement and the sensitivity of measurement for evaluating the compounds in the present invention as follows. After male Wister rats were decapitated to extirpate the whole brain and cerebellums were removed. They were homogenized in ice-cold 50 mmol/L Tris-HCL buffer solution (pH7.4), centrifuged and the obtained pellets were washed. The pellets resuspended and adjusted to about 1 mg/mL were used as rat brain membrane preparations for binding assay. The binding assay were experimented using [^3H]PK11195 as a MBR selective ligand. […]
To determine the amount of total binding in saturation binding experiment, membrane preparations, various concentrations of [^3H]PK11195, final concentration: 0.5 vol % dimethylsulfoxide (DMSO) and 50 mmol/L Tris-HCL buffer solution (pH7.4) were mixed (total volume 200 μL) and were incubated for 1 hour at room temperature. […] The filter was dried and then the radioactivity on the filter was measured by liquid scintillation counter. The data obtained by the binding experiments were Scatchard-analyzed using analysis software, KELL (Ver. 6, BIOSOFT) and the dissociation constant (KD value) was determined. […]

male Wistar rats = experiment: Evaluation of Anti-Stress Effects (psychological stress, number of defecation); format: in vivo, rat; conditions: 10 mg/kg orally 30 minutes before stressor; counted 1 hour later; media treated group average 8.0 feces
Method: Psychological stress was loaded to male Wistar rats (Brain Research, 641, 21-28, 1994). Water was stored up to the depth of about 10 cm in a container where the platform was set at the center. A stressor began to load to rats 30 minutes after the vehicle or the compound in the present invention (the compound of Example 17) were orally administered by dosage of 10 mg/kg. The number of defecation was counted 1 hour later (10 per each group). Rats without administration and load of stressor rarely defecated for 1 hour. In contrast, remarkable defecation was admitted in media treated group (average 8.0 feces) loaded by stressor. […] The results clarified that the compounds in the present invention had anti-stress effects.

In the case of `CC(=O)N1CC2(CC2)c2c([nH]c3ccccc23)C1c1cccc(F)c1` (stereo not drawn) [Example 17, 2-acetyl-1-(3-fluorophenyl)-1,2,3,9-tetrahydrospiro[β-carboline-4,1′-cyclopropane]], the pKi (MBR) was 7.68 and the “number of defecation (average)” value (male Wistar rats) was 5.4 feces.
